# Laboratory results published in patent US20110201113A1, “Ex Vivo Progenitor and Stem Cell Expansion and Differentiation for Use in the Treatment of Disease of the Nervous System” (priority 2010, published 2011).
# How the values were obtained:
# Human neural stem cells [1] = assay: Proliferation of neural stem cells treated with various bioactive molecules (alternating growth conditions, cell counting); format: cell-based; conditions: second 8 weeks of 16; factor + 1% FBS alternating weekly with EGF, bFGF, LIF, no FBS
# Experimental: hNSC's were alternately cultured in media containing a certain growth factor and serum (GF+FBS) or in the media containing EFL but lacking the presence of fetal bovine serum (EFL−FBS) as shown in FIG. 3. The media was changed on days 7 and 14 after plating the cells. This example utilized an initial incubation in EFL−FBS, followed by incubation in media including FBS. Experimental analysis of hNSCs was carried out on days 5, 10, 15, and 20, if not otherwise indicated.
# Medium 2 (+GFs): DMEM/F12 (1:1), 2% B27 (Gibco), 1% Pen-Strep (PAA), 1% FBS (Gibco)+one of the combination of growth factors (CNTF, Jagged, SHH, TGFa, Wnt1, Wnt5A, or all)
# 7 different combinations of growth factors were used: 2.1. CNTF (20 ng/ml, Peprotech); 2.2. Jagged (20 ng/ml, Peprotech); 2.3. SHH (20 ng/ml, Peprotech); 2.4. TGFa (20 ng/ml, Peprotech); 2.5 Wnt1 (20 ng/ml, R&D); 2.6 Wnt5A (20 ng/ml, R&D); and 2.7 all above.
# On days 5, 10, 15, and 20, if not otherwise indicated, neurospheres were dissociated using trypsin and single cells were counted using a hemocytometer. As a control, hNSCs were continuously grown in the absence of serum, but in the presence of growth factors EFL (control). The color code indicates the specific growth factor (GF) that was used in the GF+FBS mode. Abbreviations used: GF, growth factor; CNTF, ciliary neurotrophic factor; Jagged, SHH, sonic hedgehog; TGFα, transforming growth factor alpha; Wnt1, wingless-type MMTV integration site family, member 1; Wnt5A wingless-type MMTV integration site family, […]; or combined (CNTF, Jagged, SHH, TGFα, Wnt1, Wnt5A), E, EGF; F, bFGF; L, LIF.
# Human neural stem cells are most routinely grown in medium supplemented with EGF and bFGF (and LIF). […] Cells were grown for 16 weeks and counted regularly every two weeks. […] Cells were counted 8 times. […] At the last time point analyzed, 5 times more cells were grown with control medium than under any other conditions.
# Human neural stem cells [2] = assay: Differentiation of neural stem cells to neurons and astrocytes (bTubIII immunostaining on laminin); format: cell-based; conditions: cells taken after 8 and 12 weeks in culture, 14 days on laminin without factors; 3 random fields counted
# Experimental: Next, how the stimulation of signaling pathways affects the commitment of human neural stem cells to neuronal and glial lineages was examined. For differentiation, samples of cells grown in all 8 conditions were removed from proliferating cell populations (after 8 and 12 weeks in culture) and plated onto laminin coated coverslips. All additional factors were excluded from culture medium and cells were grown for 14 days. Next, cells were fixed and stained for neural and glial markers as described previously. Examples of immunocytochemistry analysis can be seen on FIG. 8. […] No cells were detected as positive for oligodendrocyte marker O4. After immunostaining, cells from 3 random fields were counted and their differentiation potential was estimated according to the number of bTubIII positive cells present in samples. Results can be seen on FIG. 9. […] Cells grown with Wnt5a had the least percentage of bTubIII positive cells (33%), all the other conditions gave 41 to 47% of bTubIII positive cells (in control 45%).
Molecule,support of cell growth (Human neural stem cells [1]),percentage of bTubIII positive cells (Human neural stem cells [2])
"Jagged-1: Jagged growth factor, 20 ng/ml, Peprotech",slightly more efficient than the others,
"TGFa: transforming growth factor alpha, 20 ng/ml, Peprotech",slightly more efficient than the others,
"Wnt1: wingless-type MMTV integration site family, member 1; growth factor, 20 ng/ml, R&D (protein, UniProt P04628 28-370, looked up) Proto-oncogene Wnt-1: ANSSGRWWGIVNVASSTNLLTDSKSLQLVLEPSLQLLSRKQRRLIRQNPGILHSVSGGLQSAVRECKWQFRNRRWNCPTAPGPHLFGKIVNRGCRETAFIFAITSAGVTHSVARSCSEGSIESCTCDYRRRGPGGPDWHWGGCSDNIDFGRLFGREFVDSGEKGRDLRFLMNLHNNEAGRTTVFSEMRQECKCHGMSGSCTVRTCWMRLPTLRAVGDVLRDRFDGASRVLYGNRGSNRASRAELLRLEPEDPAHKPPSPHDLVYFEKSPNFCTYSGRLGTAGTAGRACNSSSPALDGCELLCCGRGHRTRTQRVTERCNCTFHWCCHVSCRNCTHTRVLHECL",slightly more efficient than the others,
"Wnt5a: wingless-type MMTV integration site family, member 15a (as printed); growth factor, 20 ng/ml, R&D (protein, UniProt P41221 62-380, looked up) Protein Wnt-5a: IIGAQPLCSQLAGLSQGQKKLCHLYQDHMQYIGEGAKTGIKECQYQFRHRRWNCSTVDNTSVFGRVMQIGSRETAFTYAVSAAGVVNAMSRACREGELSTCGCSRAARPKDLPRDWLWGGCGDNIDYGYRFAKEFVDARERERIHAKGSYESARILMNLHNNEAGRRTVYNLADVACKCHGVSGSCSLKTCWLQLADFRKVGDALKEKYDSAAAMRLNSRGKLVQVNSRFNSPTTQDLVYIDPSPDYCVRNESTGSLGTQGRLCNKTSEGMDGCELMCCGRGYDQFKTVQTERCHCKFHWCCYVKCKKCTEIVDQFVCK",,33%
